Structures can show the parent of a compound that is named as a salt.

For this assay, the target named is T1, 5-HT3 (Homo sapiens, UniProt P46098).
T1 sequence (P46098 24-478): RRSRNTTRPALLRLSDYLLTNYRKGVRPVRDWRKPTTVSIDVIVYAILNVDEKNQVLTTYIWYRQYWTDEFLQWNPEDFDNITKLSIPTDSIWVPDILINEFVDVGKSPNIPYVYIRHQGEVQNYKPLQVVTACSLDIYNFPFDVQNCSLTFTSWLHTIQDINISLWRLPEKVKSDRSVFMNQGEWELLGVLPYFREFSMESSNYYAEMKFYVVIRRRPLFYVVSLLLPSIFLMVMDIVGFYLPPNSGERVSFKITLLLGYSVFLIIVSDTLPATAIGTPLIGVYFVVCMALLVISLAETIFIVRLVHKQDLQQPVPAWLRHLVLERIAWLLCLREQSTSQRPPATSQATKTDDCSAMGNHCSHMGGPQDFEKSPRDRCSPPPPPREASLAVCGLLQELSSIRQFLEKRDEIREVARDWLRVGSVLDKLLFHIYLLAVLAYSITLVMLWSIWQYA
In words: Compound affinity for the human 5-HT3 receptor (Assay B), SPA radioligand binding with [9-methyl-3H]BRL-43694. Further details: purchased Perkin Elmer. The settings on record: Assay B (method B unless otherwise annotated); read-out: 5-HT3 Ki. As to the method: Compound Affinity for the human 5-HT3 Receptor (Assay B)
The relative affinity of the various compounds for the human 5-HT3 receptor was measured in a radioligand binding assay, using a scintillation proximity assay (SPA) format. Test compounds were dissolved to 10 mM in 100% DMSO, then serially diluted at 10× assay concentrations in 100% DMSO in 96-well polypropylene plates and further diluted to 4× assay concentrations with the assay buffer. […] Binding reactions were set up in wells of PicoPlates-96 (Perkin Elmer) by adding consecutively 50 μL of each competing compound or buffer, SPA beads, the radioligand and 5-HT3 receptor membranes. After 60-min incubation at room temperature on a Nutator mixer, plates were centrifuged for 15 min at 1,500 rpm, followed by incubation in the dark for 30 min. Radioactivity was counted in the TopCount microplate counter (Perkin Elmer) for 5 min. […] Specific binding was determined by subtracting nonspecific binding from total binding. All experiments were performed in duplicate using ten concentrations of a competing ligand, with ondansetron included as a control in every run. IC50 values were determined from specific binding data using XLfit4.1 curve fitting software from IDBS Ltd. Ki values were then calculated from the Cheng-Prusoff equation.
In the case of `CN1[C@@H]2CCC[C@H]1C[C@@H](NC(=O)c1cccc3oc(N4CCOCC4c4ccccc4)nc13)C2` (mixture of isomers) [Example 19, Endo-N-(9-Methyl-9-azabicyclo[3.3.1]non-3-yl)-2-(3-phenylmorpholino)benzoxazole-4-carboxamide Hydrochloride], the inhibition constant (Ki) is 17 nM.
Take `CN1CCN(c2nc3c(C(=O)N[C@H]4C[C@H]5CCC[C@@H](C4)N5C)cccc3o2)C(c2ccccc2)C1` (mixture of isomers) [Example 23, Endo-N-(9-Methyl-9-azabicyclo[3.3.1]non-3-yl)-2-(4-methyl-2-phenylpiperazin-1-yl)benzoxazole-4-carboxamide Dihydrochloride]: the Ki turned out to be 25.2 nM.
In the case of `CN1CCN(c2nc3c(C(=O)NC4CN5CCC4CC5)cccc3o2)C(c2ccccc2)C1` (racemic) [Example 24, (S)—N-(quinuclidine-8-yl)-2-(4-methyl-2-phenylpiperazin-1-yl)benzoxazole-4-carboxamide Dihydrochloride], the Ki came out at 103 nM.
The same measure for `C[C@@H]1CN(c2nc3c(C(=O)NC4CC5CCCC(C4)N5C)cccc3o2)[C@@H](C)CN1` (relative stereo) [Example 60, Endo N-(9-Methyl-9-azabicyclo[3.3.1]nonan-3-yl)-2-((2S*,5R*)-2,5-dimethylpiperazin-1-yl)benzoxazole-4-carboxamide Hydrochloride]: 10.5 nM; for `C=CCN1C[C@H](C)N(c2nc3c(C(=O)NC4CC5CCCC(C4)N5C)cccc3o2)C[C@H]1C` (relative stereo) [Example 147, Endo-N-(9-Methyl-9-azabicyclo[3.3.1]nonan-3-yl)-2-((2S*,5R*)-4-allyl-2,5-dimethylpiperazin-1-yl)benzoxazole-4-carboxamide Dihydrochloride]: 10.8 nM; for `CN1CCN(c2nc3c(C(=O)N[C@H]4C[C@H]5CCC[C@@H](C4)N5C)cccc3o2)CC1` [Example 1, Endo-N-(9-Methyl-9-azabicyclo[3.3.1]non-3-yl)-2-(4-methylpiperazin-1-yl)benzoxazole-4-carboxamide Dihydrochloride]: 85 nM.
Consider `CN1CCN(c2nc3c(C(=O)N[C@@H]4CN5CCC4CC5)cccc3o2)CC1` [Example 2, (S)—N-(quinuclidine-8-yl)-2-(4-methylpiperazin-1-yl)benzoxazole-4-carboxamide Dihydrochloride], for which the Ki worked out at 382 nM.
Take `CN1[C@@H]2CCC[C@H]1C[C@@H](NC(=O)c1cccc3oc(N4CCCCC4)nc13)C2` [Example 3, Endo-N-(9-Methyl-9-azabicyclo[3.3.1]non-3-yl)-2-(piperidin-1-yl)benzoxazole-4-carboxamide Hydrochloride]: the Ki was determined as 10.4 nM.
For `O=C(N[C@@H]1CN2CCC1CC2)c1cccc2oc(N3CCCCC3)nc12` [Example 4, (S)—N-(quinuclidine-8-yl)-2-(piperidin-1-yl)benzoxazole-4-carboxamide hydrochloride], the inhibition constant (Ki) amounted to 34.2 nM.
The same measure for `CN1[C@@H]2CCC[C@H]1C[C@@H](NC(=O)c1cccc3oc(Nc4ccccc4)nc13)C2` [Example 5, Endo-N-(9-Methyl-9-azabicyclo[3.3.1]non-3-yl)-2-(phenylamino)benzoxazole-4-carboxamide Hydrochloride]: 6.25 nM; for `O=C(N[C@@H]1CN2CCC1CC2)c1cccc2oc(Nc3ccccc3)nc12` [Example 6, (S)—N-(quinuclidine-8-yl)-2-(phenylamino) benzoxazole-4-carboxamide Hydrochloride]: 8.1 nM.
Turning to `CN(C)c1nc2c(C(=O)N[C@H]3C[C@H]4CCC[C@@H](C3)N4C)cccc2o1` [Example 7, Endo-N-(9-Methyl-9-azabicyclo[3.3.1]non-3-yl)-2-(dimethylamino)benzoxazole-4-carboxamide Hydrochloride], the Ki is 6.1 nM.
For the molecule `CN1[C@@H]2CCC[C@H]1C[C@@H](NC(=O)c1cccc3oc(N4CCOCC4)nc13)C2` [Example 9, Endo-N-(9-Methyl-9-azabicyclo[3.3.1]non-3-yl)-2-morpholinobenzoxazole-4-carboxamide Hydrochloride], the Ki is 42 nM.
The same measure for `O=C(N[C@@H]1CN2CCC1CC2)c1cccc2oc(N3CCOCC3)nc12` [Example 10, (S)—N-(quinuclidine-8-yl)-2-morpholino-benzoxazole-4-carboxamide Hydrochloride]: 164 nM; for `CN1CCCN(c2nc3c(C(=O)N[C@H]4C[C@H]5CCC[C@@H](C4)N5C)cccc3o2)CC1` [Example 11, Endo-N-(9-Methyl-9-azabicyclo[3.3.1]non-3-yl)-2-(4-methyl-1,4-diazepam-1-yl)benzoxazole-4-carboxamide Dihydrochloride]: 89.6 nM; for `CN1CCCN(c2nc3c(C(=O)NC4CN5CCC4CC5)cccc3o2)CC1` [Example 12, (S)—N-(quinuclidine-8-yl)-2-(4-methyl-1,4-diazepam-1-yl)benzoxazole-4-carboxamide Dihydrochloride]: 317 nM.
The same measure for `CN1[C@@H]2CCC[C@H]1C[C@@H](NC(=O)c1cccc3oc(NC4CNC4)nc13)C2` [Example 16, Endo-N-(9-Methyl-9-azabicyclo[3.3.1]non-3-yl)-2-(azetidin-3-ylamino)benzoxazole-4-carboxamide Dihydrochloride]: 179 nM; for `C[C@@H]1CN(c2nc3c(C(=O)NC4CC5CCCC(C4)N5C)cccc3o2)C[C@H](C)O1` (stereo partly drawn) [Example 17, Endo-N-(9-Methyl-9-azabicyclo[3.3.1]non-3-yl)-2-[(2S,6R)-2,6-dimethylmorpholino]benzoxazole-4-carboxamide Hydrochloride]: 54.2 nM.
For `C[C@@H]1CN(c2nc3c(C(=O)N[C@@H]4CN5CCC4CC5)cccc3o2)C[C@H](C)O1` [Example 18, (S)—N-(quinuclidine-8-yl)-2-((2S,6R)-2,6-dimethylmorpholino)benzoxazole-4-carboxamide Hydrochloride] the value was 443 nM.
As for `O=C(NC1CN2CCC1CC2)c1cccc2oc(N3CCOCC3c3ccccc3)nc12` [Example 20, (S)—N-(quinuclidine-8-yl)-2-(3-phenylmorpholino)benzoxazole-4-carboxamide Hydrochloride], the inhibition constant Ki stood at 34.4 nM.
As for `CN1[C@@H]2CCC[C@H]1C[C@@H](NC(=O)c1cccc3oc(N4CCNCC4)nc13)C2` [Example 21, Endo-N-(9-Methyl-9-azabicyclo[3.3.1]non-3-yl)-2-(piperazin-1-yl)benzoxazole-4-carboxamide Dihydrochloride], the Ki turned out to be 74.6 nM.
Turning to `O=C(N[C@@H]1CN2CCC1CC2)c1cccc2oc(N3CCNCC3)nc12` [Example 22, (S)—N-(quinuclidine-8-yl)-2-(piperazin-1-yl)benzoxazole-4-carboxamide Dihydrochloride], the Ki worked out at 321 nM.
As for `CC1CNCCN1c1nc2c(C(=O)N[C@H]3C[C@H]4CCC[C@@H](C3)N4C)cccc2o1` (stereo partly drawn) [Example 25, Endo-N-(9-Methyl-9-azabicyclo[3.3.1]non-3-yl)-2-(2-methylpiperazin-1-yl)benzoxazole-4-carboxamide Dihydrochloride], the inhibition constant Ki is 27.5 nM.
In the case of `CC1CNCCN1c1nc2c(C(=O)NC3CN4CCC3CC4)cccc2o1` [Example 26, (S)—N-(quinuclidine-8-yl)-2-(2-methylpiperazin-1-yl)benzoxazole-4-carboxamide Dihydrochloride], the Ki is 241 nM.
